Assay results taken from patent US20110152379A1, “COMPOSITION FOR CONTROL OF AGING AND/OR EXTENSION OF LIFE, CONTAINING DAPSONE AS ACTIVE INGREDIENT” (priority 2008, published 2011).

Tests used:
SOD1 = assay: Western blot of SOD1 amount in human diploid fibroblast; assay type: cell-based; details: various concentrations of DDS, FIG. 25B
Protocol: Trolox that is well known as a water-soluble vitamin E was used as a positive control.
(§1) The isolated sample was transferred to a nitrocellulose and analyzed through Western Blot using MS601 (Total OXPHOS Complexes Detection Kit, MitoSciences, containing antibodies against SDH30 subunit of complex II (5 μg/ml), Core2 subunit of complex III (0.2 μg/ml), COXII subunit of complex IV (2 μg/ml), and subunit α of F1-ATPase of complex V (0.2 μg/ml)), PCKpan-p, PCKα/β-p, PKCδ-p (Phospho-PKC antibody Sampler Kit, Cell Signaling Technology), PKC α, PCKβ, PKCδ (Life Technologies), β-Actin (Sigma), and the like. The measurement was performed by using a horseradish peroxygenase-conjugated secondary antibodies (Zymed) and ECL (Pierce). The results were shown through visualizing by using Autoradiographic film (Image Reader, LAS-3000Fujifilm, Japan).

autophagy = assay: Autophagy genes RT-PCR and GFP::lgg-1 immune blot in C. elegans; assay type: in vivo; details: after treating with DDS
Protocol: All the results are summarized from three independent experiments.
Total RNA was isolated by using TRI reagent available from MRC Company and first cDNA strain was synthesized by using Oligo-dT and Superscript II Reverse Transcriptase (available from Invitrogen Company). The gene amplification (PCR) was performed by using PCR Master Mix (Genenmed) and as the base sequence of the primer, ceDuox1; 5′-[…]-3′ (Forward Primer) and 5′-[…]-3′ (Reverse Primer), actin 5′-[…]-3′ (Forward Primer) and 5′-[…]-3′ (Reverse Primer) were used.
In addition, the gene related to the autophagy used the primer as follows: […]

human diploid fibroblast = assay: Survival rate of human diploid fibroblast treated with PQ (CCK-8); details: DDS pretreatment (0.1, 1, 5, 20 and 50 uM) 3 hours, then 1 mM PQ 48 hours; FIG. 23
Protocol: The above cell was cultured by adding Cell Counting Kit-8 for 48 hours and then the survival ability of cell was measured. In addition, DPI (5 uM) was pretreated for 30 minutes and NAC (2 mM) was pretreated for 3 hours, and then 1 mM of PQ was treated as a positive control.
The evaluation of survival rate of cell was performed by using Counting Kit (CCK-8) from Dojindo Laboratory Company (Japan). The human diploid fibroblast was cultured at 96-well plate for 24 hours before treating. […] The absorbance was measured at 450 nm.

C. elegans [1] = assay: Oxidative stress resistance test, survival in 250 mM paraquat; assay type: in vivo; details: PQ 250 mM; compared with control C. elegans; FIG. 12
Protocol: C. elegans at 5 days after administrating dapsone for second generations was used for testing an oxidative stress resistance by dapsone. 250 mM of paraquat was dissolved in M9 solution and then 20 C. elegans was immersed into the above solution. The number of living C. elegans was measured per an hour.

ATP = assay: Measurement of ATP amount in C. elegans; assay type: in vivo; details: C. elegans treated with DDS; FIG. 9
Protocol: The amount of ATP was measured by slightly modifying the method as mentioned above. In order to, analyze the total amount of ATP, C. elegans was cultured by feeding only on PABA or by feeding on PABA and dapsone, and then was washed with S Basal buffer solution (0.1 M NaCl/0.05 M potassium phosphate buffer, pH 6.0) to remove a contaminant and prepare a sample for measuring. The sample was ultimately adjusted to be 100 ul and then froze at −80° C. C. elegans that was frozen was immediately heated for 15 minutes to erupt ATP and then maintained at a cold condition. Since then, the residue of C. elegans was removed by using a centrifuge (at 15,000 g for 5 minutes). The amount of ATP was measured by using the reagent of bioluminescence assay kit CLS II (Roche Molecular Biochemicals) and Luminometer (available from PerkinElmer company). The amount of ATP was standardized with the amount of protein.

[2] = test system: cytosolic superoxide anion; assay: Superoxide anion in cell (cytoplasm), DHE; assay type: cell-based; details: human diploid fibroblast; 1 mM PQ 30 minutes; FIG. 24A
Protocol: The cell was treated with 1 mM of PQ for 30 minutes, and then was cultured at 37° C. for 15 minutes after adding oxidant-sensitive fluorescent dyes (A) DHE (5 uM, cytosol specific) and (B) MitoSOX (5 uM, mitochondria specific), respectively. For identifying the change of fluorescence, the excitation and emission wavelength of DHE were measured at 515 and 590 nm and MitoSOX was measured at 520 and 580 nm by using a multiwell plate reader. The results were indicated by calculating the results of three experiments as a control rate (%). The statistical significant was expressed as *, # p<0.005; ** p<0.05.
The cell was twice washed with DPBS and Ethidium-DNA that fluoresces was immediately measured at excitation wavelength 515 nm and emission wavelength 590 nm by using Cary Eclipse fluorescence spectrophotometer (Varian, Calif., USA) machine.

mitochondria complex = assay: Mitochondria complex protein amount by Western blot in PQ-treated human diploid fibroblast; assay type: cell-based; details: 1 mM PQ 24 hours, FIG. 29A
Protocol: The protein amount of mitochondria constituent complex was measured by using Western Blot using Complex I (20 kDa ND6 subunit), Complex II (30 kDa FeS, non-heme iron protein, SDHB), Complex III (47 kDa core protein 2), Complex IV (18 kDa subunit IV), Complex V (55 kDa subunit a ATP synthase), and the like. […] The membrane potential (Δψm) of mitochondria used DiOC6. […] Since then, the above fibroblast was treated with 40 nM of DiOC6 for 15 minutes. The results were measured by using Cary Eclipse Fluorescence Spectrophotometer (Varian, Calif., USA) and the excitation wavelength and emission wavelength were measured at 480 nm and 520 nm, respectively.
as §1, with “The measurement was performed by using a horseradish peroxygenase-conjugated secondary antibodies (Zymed) and ECL (Pierce).” left out

C. elegans [3] = assay: Chemiluminescent of lipofuscin in small intestine of worm; assay type: in vivo; details: fed on DDS during the whole life and after the adolescence; FIG. 5
Protocol: The chemiluminescent of C. elegans was taken a photograph by exposing for 800 msec through 525 nm Band-Pass Filter. The size of each photograph was only adjusted by using Adobe Photoshop CS2. For measuring the amount of Chemiluminescent in a small intestine, the brightness of pixels in a certain region was measured by Image J 1.35. At least 30 of C. elegans were measured every day and then the mean and standard error were calculated.

PKCβ = assay: PKC phosphorylation induced by PQ, Western blot; assay type: cell-based; details: human diploid fibroblast; 1 mM PQ; FIG. 28
Protocol: as §1

Compound: Nc1ccc(S(=O)(=O)c2ccc(N)cc2)cc1 [DDS, 4,4′-diaminodiphenylsulfone]
- amount of SOD1 (SOD1): decreases
- genes relevant to the autophagy, transcription level (autophagy; RT-PCR, FIG. 21A): not changed
- LGG-1 marker protein of the autophagy (autophagy; immune blot, FIG. 21B): not increased
- viability of human diploid fibroblast compared with the cell having the cytotoxic of PQ (human diploid fibroblast): improved
- survival rate in NGM liquid medium containing PQ (C. elegans [1]): significantly increased
- ATP amount (ATP): decreased
- superoxide anion of cytoplasm produced by PQ (DHE assay) [2]: reduced depending upon the concentration of DDS
- amount of mitochondria complex reduced by PQ (mitochondria complex): recover
- generation of lipofuscin (C. elegans [3]): delayed for several days
- PKCβ phosphorylation (activity) increased by PQ (PKCβ): reduced
